Assay results taken from patent US20210267996A1, “Compounds for inhibition of inflammation” (Children`s Medical Center Corporation, priority 2018, published 2021).

Columns and labels:
Human GSDMD = molecular target: T1, Human GSDMD (Homo sapiens, UniProt P57764); assay: Liposome leakage assay (Tb3+/DPA), GSDMD plus caspase-11; format: biochemical; conditions: for IC50: WT GSDMD, caspase-11-triggered, read-out: IC50 of liposome leakage
T1 construct: His6-MBP (N, cleaved yes); made in house; host or cells: E. coli BL21 (DE3) for GSDMD; Sf9 for caspase-11
T1 sequence (P57764 1-484): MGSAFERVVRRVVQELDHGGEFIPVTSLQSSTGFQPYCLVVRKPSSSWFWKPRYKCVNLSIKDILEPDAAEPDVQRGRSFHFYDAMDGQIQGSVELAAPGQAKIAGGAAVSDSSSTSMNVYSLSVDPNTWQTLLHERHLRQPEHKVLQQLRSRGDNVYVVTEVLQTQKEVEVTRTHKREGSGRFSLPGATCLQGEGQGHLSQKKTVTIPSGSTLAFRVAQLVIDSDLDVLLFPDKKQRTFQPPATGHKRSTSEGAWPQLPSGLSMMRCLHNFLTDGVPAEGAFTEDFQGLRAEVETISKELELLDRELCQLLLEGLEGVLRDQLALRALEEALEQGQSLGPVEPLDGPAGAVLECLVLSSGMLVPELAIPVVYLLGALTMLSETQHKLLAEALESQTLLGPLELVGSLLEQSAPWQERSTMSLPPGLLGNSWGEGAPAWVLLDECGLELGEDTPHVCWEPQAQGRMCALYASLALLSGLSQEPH
Description: The lipid mixture was suspended in 1 mL Buffer A (20 mM HEPES, 150 mM NaCl, 50 mM sodium citrate, and 15 mM TbCl3) for 3 min. The suspension was pushed through 100 nm Whatman® Nuclepore™ Track-Etched Membrane 30 times to obtain homogeneous liposomes. The filtered suspension was purified by size exclusion column (Superose 6, 10/300 GL) in Buffer B (20 mM HEPES, 150 mM NaCl) to remove TbCl3 outside liposomes. […] The liposomes are diluted to 50 μM with Buffer C (20 mM HEPES, 150 mM NaCl and 50 μM DPA) for use in high-throughput screening.

NF-κB activation = assay: Inflammasome priming by LPS in THP-1 cells (immunoblot); format: cell-based, human; conditions: for NF-κB activation / pro-IL-1β induction: 30 μM, 1 hr before LPS; for NLRP3 induction: 1 hour before LPS
Description: Immunoblot analysis: cell extracts were prepared using RIPA buffer (50 mM Tris-HCl pH 7.4, 150 mM NaCl, 1 mM EDTA, 1% Triton X-100, 0.1% SDS, 0.5% deoxycholate) supplemented with a complete protease inhibitor cocktail (Roche) and a PhosSTOP phosphatase inhibitor cocktail (Roche). Samples were subjected to SDS-PAGE and the resolved proteins were then transferred to a PVDF membrane (Millipore). Immunoblots were probed with indicated antibodies and visualized using a SuperSignal West Pico chemiluminescence ECL kit (Pierce).
Because both disulfiram and Bay 11-7082 non-specifically modify reactive Cys, their effects on the steps leading to pyroptosis and inflammatory caspase activation were next analyzed. Some of the genes that participate in the canonical inflammasome pathway are not expressed in unstimulated cells and their expression needs to be induced, often by binding to cell surface sensors of pathogen and danger-associated molecular patterns, such as Toll-like receptors (TLR), in a process called priming. Bay 11-7082 is known to inhibit NF-κB activation, a key transcription factor in priming. The effect of disulfiram and Bay 11-7082 on priming were first examined (FIG. 45). NF-κB activation was assessed by examining IκBα phosphorylation and degradation and RelA (p65) phosphorylation. Induction of pro-IL-1β was assessed by immunoblot for pro-IL1β protein. In the absence of disulfiram or Bay 11-7082, phosphorylation of p65 was first detected 30 min after adding LPS and persisted for 4 hrs, phosphorylation and reduced IκBα. were detected 1 hr after adding LPS, and increased pro-IL-1β was detected 4 hrs after adding LPS. […] Thus, disulfiram and Bay 11-7082 both inhibit priming.
Cell death was determined by CytoTox96 assay. […] Cell death was determined by CytoTox96 assay. […] Shown are immunoblots of whole cell lysates harvested 0.5 hr later. […] Representative images of ASC specks (arrowheads) and mean±s.d. percent of cells with ASC specks analyzed 20 min later (FIG. 47). Whole cell lysates (WCL) and culture supernatants (Sup) were harvested 30 min after adding nigericin and immunoblotted with the indicated antibodies (FIG. 50). Caspase-1 activity was assayed 30 min after adding nigericin using a cell-permeable fluorescence dye FAM-YVAD-FMK (FIG. 52). […] Representative images of ASC specks (arrowheads) and mean±s.d. percent of cells with ASC specks analyzed 20 min later (FIGS. 48 and 49). Whole cell lysates (WCL) and culture supernatants (Sup), harvested 30 min after adding nigericin, were analyzed by immunoblot (FIG. 51). […] The Figures show representative confocal microscopy images and quantification of proportion of cells with GSDMD membrane staining and pyroptotic bubbles. Arrows indicate GSDMD staining of pyroptotic bubbles. […] FIGS. 57 and 58, dose response curve of the effect of Bay 11-7082 on caspase-1 (FIG. 57) and caspase-11 (FIG. 58) activity against a fluorescent peptide substrate. FIGS. 59 and 60 show MS/MS spectra of the Cys191-containing GSDMD peptide […] (FIG. 60). FIGS. 61 and 62 show dose response curve of the effect of Bay 11-7082 on liposome leakage induced by 0.3 μM human GSDMD-3C (FIG. 61) or mouse GSDMA3-3C (FIG. 62) plus 0.15 μM 3C protease. […] 2-fold dilutions of Bay 11-7082 from 5-40 μM were used. Graphs show the mean±s.d; data are representative of three independent experiments. *P<0.05, **P<0.01.
To elucidate the cellular mechanism of pyroptosis inhibition by disulfiram, its effects on the entire inflammasome activation pathway were analyzed. Some of the genes that participate in the canonical inflammasome pathway are not expressed in unstimulated cells and their expression needs to be induced, often by binding to cell surface sensors of pathogen and danger-associated molecular patterns, such as Toll-like receptors (TLR), in a process called priming. […]

SMILES: CCN(CC)C(=S)SSC(=S)N(CC)CC [C-23, Tetraethylthiuram disulfide]
- IC50 (Human GSDMD): ~0.3 µM
- incubation time to inhibition of liposome leakage (Human GSDMD; time course, preincubation 2-90 min): ≤ 2 min
- effect of copper gluconate (Cu2+) on inhibition of liposome leakage (Human GSDMD; with Cu2+): only weakly increased
- NF-κB activation (NF-κB activation): inhibited NF-κB activation
- pro-IL-1β induction (NF-κB activation; listed as disulfiram): blocked pro-IL-1β induction
- NLRP3 induction (NF-κB activation): blocked

SMILES: Cc1ccc(S(=O)(=O)/C=C/C#N)cc1 [Bay 11-7082]
- times less active than disulfiram at inhibiting liposome leakage (Human GSDMD; GSDMD plus caspase-11): 23 fold
- IC50 (Human GSDMD): 6.81 ± 0.1 µM
- NF-κB activation (NF-κB activation): had a stronger effect
- pro-IL-1β induction (NF-κB activation): blocked pro-IL-1β induction
- NLRP3 induction (NF-κB activation): blocked
